Results on two molecules are retold here after US12486214B2, “Rosmarinic acid derivative, Rosmarinic acid-derived particles, composition containing same for treating inflammatory disease” (KOREA ADVANCED INSTITUTE OF SCIENCE AND TECHNOLOGY, priority 2020, dated 2025).

Read-outs that look alike come from different tables or passages of the source.

A short description of data set [1]: Particle size, zeta potential and morphology (DLS/PCS, TEM). Format: physicochemical. How it is done: PEG-RA (20 mg) was dissolved in 4 mL of a 1:3 mixture (v/v) of chloroform:methanol and mixed for several minutes. The organic solvent was then removed by rotary vacuum evaporation and was further dried under a nitrogen flow for 30 minutes to yield a film layer. The film layer was suspended in 1 mL of PBS (137 mM NaCl, 2.7 mM KCl, 10 mM Na2HPO4, 2 mM KH2PO4, pH 7.4) and the resulting micelle suspension was sonicated in a bath sonicator (50 W, 40 kHz) for 10 minutes to yield uniform-sized RANPs. The micelle solution was maintained at 4° C., and directly used in the experiments below. The particle size of RANPs was analyzed by photon correlation spectroscopy (PCS) using a Nanosizer ZS90 (Malvern Instrument Ltd., Malvern, UK) equipped with 4.0 mW HeNe laser and an avalanche photodiode detector operating at 633 nm. Zeta potential was also measured at 25° C. in aqueous solutions (pH 7) by using the same equipment. The morphological characteristics of RANPs were examined using negative-staining transmission electron microscopy (TEM). Briefly, a drop of the diluted sample was placed on copper grids coated with a carbon film, stained with 0.5% w/v uranyl acetate solution, and dried at room temperature. The grids were imaged using a Tecnai F20 (FEI Co., Hillsboro, OR, USA) transmission electron microscope. […]
The hydrodynamic size and zeta potential of RANPs in phosphate buffer solution (pH 7.4), measured by dynamic light scattering (DLS), were 67.5±3.5 nm and −33.70 mV, respectively, indicating the exposure of the PEG layer on the surface of nanoparticles (FIG. 1C and Table 1).
The product was then analyzed through UV-Vis spectrometry using Beckman Coulter DU-800 UV-Vis spectrometer. The particle size of the HA-RA nanoparticles was obtained by measuring the hydrodynamic size of HA-RA nanoparticles in phosphate buffer solution (pH 7.4), measured by dynamic light scattering (DLS). […]
The LMWC-RA of the present disclosure was prepared into nanoparticles by the method shown in Example 8, and then the hydrodynamic size and zeta potential value thereof were measured.

For data set [2], the system named is inflammatory bowel disease model mice. The data set is described as follows: Effect of oral HA-RANPs (and HA, RA, 5-ASA) on inflammatory bowel disease model mice (3% DSS). Format: in vivo. The conditions noted are these: 5 times: HA-RANPs 100 mg/kg, HA 85 mg/kg, RA 15 mg/kg, 5-ASA 100 mg/kg. How it is done: To investigate the antiinflammatory therapeutic efficacy of HA-RANPs in inflammatory bowel disease model mice, the present inventors performed the following tests. By using the inflammatory bowel disease model in which 3% DSS and drinking water were administered to mice (C57BL/6, 6 weeks old, female, 7-day acclimatization) for 5 days, three dose concentrations (20, 50, and 100 mg/kg) of HA-RANPs were orally administered for 5 days (D+1 to D+5, one time/day) for a total of 5 times. The degree of disease progression and the antiinflammatory effect of HA-RANPs were examined through weight changes (measured daily) of all groups of mice and the extraction and tests of the large intestine on the last day.
In addition, the myeloperoxidase (MPO) activity and inflammatory cytokine expression were examined through ELISA assay. Specifically, the same portion of each mouse colon sample was cut, pre-treated, and minced, and then a predetermined amount thereof was centrifuged to obtain a supernatant, and thereafter, the supernatant was subjected to the following assay. The MPO activity is an index to evaluate the infiltration of neutrophils into the inflamed tissue. The measurement of MPO activity is disclosed in Grisham et al. (1990) or the like.
The change in extent of inflammation in the colon was investigated by histopathological examination, that is, examining the degrees of structural integrity loss, crypt destruction, and mucosal surface changes.
The present inventors evaluated the effect of the HA-RANPs of the present disclosure on inflammatory bowel disease model mice through the comparison with HA and RA. The inflammatory bowel disease model was induced by the same method as in the above-described experiment, wherein 100 mg/kg of HA-RANPs as a drug and the equal amounts of Free HA (85 mg/kg), RA (15 mg/kg), and 5-amino salicylic acid (5-ASA) (100 mg/kg) as positive drug controls were administered orally (a total of 5 times, one time/day, D+1 to D+5).

A short description of data set [3]: Solubility in distilled water or DMSO. Format: physicochemical.
The conditions of data set [4]: free RA, rats, intravenous 0.625 mg/kg; cited from earlier work.
For data set [5] the following is noted: in vivo; cited from earlier work.

As usually defined, the solubility is how much of the substance goes into solution per volume. In data set [1], `O=C(/C=C/c1ccc(O)c(O)c1)O[C@H](Cc1ccc(O)c(O)c1)C(=O)O` [Rosmarinic acid (RA), rosmarinic acid] displayed a Conductivity of 24.10 mS/cm, a Mobility of −1.217 μm cm/Vs and a Zeta potential of −15.53 mV. In addition, in data set [2], the “MPO activity and pro-inflammatory cytokine levels” value was “somewhat relieved”; the “body weight loss and colon length shortening on day 10” value is “slight efficacy”; the “colon histopathology (H&E stained biopsy)” value is “slightly relieved”; the “expression of tight junction-related genes ZO-1, claudin-1, and occludin in colon” value is reported as “improved”. For the same molecule, the solubility in data set [3] (DMSO, organic solvent or mixture, read-out: solubility in DMSO) is not above 25 mg/mL. The “dissolution in distilled water” value in data set [3] (at 5 mg/ml) is “only partially dissolved”. Further, the solubility in data set [3] (distilled water, water, read-out: solubility in distilled water) was not above 0.041 mg/mL. For the same molecule, in data set [4], the area under the curve (AUC) was 4090 ng·h/mL, the “circulation (or elimination) half-life (t1/2)” value is 42.9 min and the “mean residence time (MRT)” value was 50.1 min. Also, the “time within which RA is usually excreted from the body” value in data set [5] is not above 30 min.

For the molecule `Nc1ccc(O)c(C(=O)O)c1` [5-ASA, 5-amino salicylic acid], in data set [2], the “MPO activity and pro-inflammatory cytokine levels” value is given as “somewhat relieved”; the “body weight loss and colon length shortening on day 10” value is recorded as “significantly low”; the “colon histopathology (H&E stained biopsy)” value is given as “slightly relieved”; the “expression of tight junction-related genes ZO-1, claudin-1, and occludin in colon” value is “improved”.
